In PubChem BioAssay (NCI):
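Step 1: Grow cells in 96-well plates. Step 2: Expose to compound for 48 hours at 5 concentrations. Step 3: Interpolate endpoints linearly; if unreached, use highest concentration. TGI: concentration producing complete growth inhibition.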

Tests used:
Test in all cases: DTP human tumour cell line panel, 48 h
UACC-257 melanoma = tested on: UACC-257 melanoma
SK-MEL-28 melanoma = tested on: SK-MEL-28 melanoma
SF-539 CNS = tested on: SF-539 CNS
ACHN renal = tested on: ACHN renal
MDA-MB-231 breast = tested on: MDA-MB-231 breast
MCF7 breast = tested on: MCF7 breast
NCI-H460 lung = tested on: NCI-H460 lung
SK-MEL-2 melanoma = tested on: SK-MEL-2 melanoma
SNB-19 CNS = tested on: SNB-19 CNS
HS 578T breast = tested on: HS 578T breast

| SMILES | TGI (UACC-257 melanoma) [µM] | TGI (SK-MEL-28 melanoma) [µM] | TGI (SF-539 CNS) [µM] | TGI (ACHN renal) [µM] | TGI (MDA-MB-231 breast) [µM] | TGI (MCF7 breast) [µM] | TGI (NCI-H460 lung) [µM] | TGI (SK-MEL-2 melanoma) [µM] | TGI (SNB-19 CNS) [µM] | TGI (HS 578T breast) [µM] |
| --- | --- | --- | --- | --- | --- | --- | --- | --- | --- | --- |
| Cc1cc(Cc2cc(C)c(NC(=O)C(=O)C3CCC4=C(SC5C=CC=CC5N4)C3=O)c(C(C)C)c2)cc(C(C)C)c1NC(=O)C(=O)C1CCC2=C(SC3C=CC=CC3N2)C1=O (configuration not stated) | > 100 | > 100 | > 100 | > 100 | > 100 | > 100 | > 100 | > 100 | – | – |
| OC(c1ccc(C(F)(F)F)cc1)C(F)(F)c1nc2ccccc2o1 (configuration not stated) | > 100 | > 100 | > 100 | > 100 | > 100 | > 100 | > 100 | > 100 | > 100 | > 100 |
| O=c1[nH]nc(Cc2c[nH]c3ccccc23)o1 | > 100 | > 100 | > 100 | > 100 | > 100 | > 100 | – | > 100 | > 100 | > 100 |
| CC1=C(O)C(=O)C2C(=O)C1C1Cc3ccccc3C21 (configuration not stated) | – | > 100 | > 100 | > 100 | – | – | – | > 100 | > 100 | – |
| N#CC(=N)c1ncn(-c2ccc(N)cc2)c1N | > 100 | > 100 | > 100 | > 100 | > 100 | > 100 | > 100 | > 100 | > 100 | > 100 |
| COc1ccc(Cc2nnc(Nc3ccc(Br)cc3)[nH]c2=O)cc1OC | > 100 | > 100 | > 100 | > 100 | > 100 | > 100 | > 100 | > 100 | > 100 | > 100 |
| CC1(C)OC(=O)N(c2ccccc2)C12C=Cc1cccc([N+](=O)[O-])c1O2 (configuration not stated) | > 100 | > 100 | – | > 100 | > 100 | > 100 | > 100 | > 100 | > 100 | > 100 |
| COc1cc(/C=N/n2c(-c3ccccc3)nn(C(C)=O)c2=O)cc(OC)c1OC | > 39.3 | > 80.6 | 8.54 | > 64.6 | 64.3 | > 37.9 | > 39.2 | 18.4 | > 52.3 | > 26.9 |
| COc1ccc(N2C(=O)C3c4[nH]c5ccc(Br)cc5c4C4CCC(C(C)(C)C)CC4C3C2=O)cc1 (configuration not stated) | > 100 | > 100 | > 100 | > 100 | > 100 | > 100 | > 100 | > 100 | > 100 | > 100 |
| Cc1c2c(c(O)c3c(O)cccc13)C(=O)C1(O)C(O)=C(C(=O)NCNc3ccc(C(N)=O)cn3)C(=O)C(N(C)C)C1C2 (configuration not stated) | > 100 | 14.6 | 7.42 | – | > 100 | > 100 | – | 34.1 | – | – |
| N#Cc1c(-c2ccc(Cl)cc2)[nH]c(=O)n(C2OC(CO)C(O)C(O)C2O)c1=O (configuration not stated) | > 100 | > 100 | > 100 | > 100 | > 100 | > 100 | > 100 | > 100 | > 100 | > 100 |
